Here are results for 13 compounds from US9376700B2, “Methods of modifying N-termini of a peptide or protein using transferases” (The Trustees of the University of Pennsylvania, priority 2012, dated 2016).

Holding throughout (format): biochemical
One assay concerns V. vulnificus BpT. As to the kind of experiment: AspAlaAcm ligation assay: BpT-catalyzed transfer from adenosyl donor to AspAlaAcm. The settings on record: single addition of donor, 100 μM AspAlaAcm, 2.26 μM BpT, standard BpT-catalyzed transfer conditions. Here is the method:
Ligation test reactions with V. vulnificus Bpt were conducted in a manner identical to the AaT LysAlaAcm ligation assay with the following exceptions, 2.26 μM BpT was used rather than 2.26 μM AaT, 100 μM AspAlaAcm was used rather than 100 μM LysAlaAcm, and BpT Ligation Buffer (50 mM HEPES, pH 8, 150 mM KO, 10 mM MgCl2) was used rather than AaT Ligation Buffer.
(§1) The extent of transfer was evaluated by HPLC analysis of reactions with adenosyl donor, AaT or BpT, and an aminocoumarin-labeled reporter peptide (for AaT, LysAlaAcm was used as previously described by Tirrell and co-workers; for BpT, AspAlaAcm was used in an analogous fashion) (Connor et al., 2008, ChemBioChem 9:366-369). Monitoring LysAlaAcm or AspAlaAcm acylation in crude reaction mixtures using absorbance at 325 nm conveniently eliminates background due to other proteins and nucleic acids, although some non-natural amino acids such as naphthylalanine (Nap) and methoxycoumarinylalanine (Mcm) also absorb in this range.

For assay [1], the target named is T1, E. coli aminoacyl transferase (AaT) (Escherichia coli, UniProt P0A8P1). As to the kind of experiment: LysAlaAcm ligation assay: AaT-catalyzed transfer from aminoacyl adenosine donor to LysAlaAcm, HPLC at 325 nm. Further details: made in house; host or cells: E. coli BL21-Gold (DE3), plasmid pEG6, Ni-NTA purified. The settings on record: for Transfer to LysAlaAcm by AaT (in words): reactions analyzed after 4 h; for Ligated Product Yield (%): 4 h. Here is the method: Each ligation reaction, 125 μL total volume, contained the following reagents: aminoacyl adenosine donor (1 mM), recombinant His10-tagged E. coli aminoacyl transferase (2.26 μM), and LysAlaAcm (100 μM) in the AaT Ligation Buffer (50 mM HEPES pH 8.0, 150 mm KCl, 10 mM MgCl2). The reaction mixtures were incubated at 37° C. for four hours and quenched with 1% acetic acid. The proteins were extracted from the reactions via acetone precipitation. The reactions were precipitated using 4× reaction volume of acetone and cooled at −20° C. for 1 h. Next, the reactions were centrifuged at 13,200 rpm at 4° C. for 20 min to separate the reaction from precipitated protein. The supernatant was transferred to fresh 1.5 mL centrifuge tubes and allowed for acetone evaporation overnight at room temperature. After acetone evaporation, the supernatant was dried in a Speedvac (Savant, Thermo Scientific, Fisher Inc.) for 30 min to remove residual acetone. The resulting reaction volume was dissolved up to 1.2 mL using Milli-Q water and analyzed by HPLC (gradient below) to determine ligation yield by integration of separated peak intensities monitored at 325 nm. Collected HPLC fractions were characterized through MALDI MS analysis. […] Reactions using Phe-pdCpA as donor were carried out in an identical fashion (Ellman, et al., 1991, Methods Enzymol. 202:301-336).
T1 sequence (P0A8P1 whole entry): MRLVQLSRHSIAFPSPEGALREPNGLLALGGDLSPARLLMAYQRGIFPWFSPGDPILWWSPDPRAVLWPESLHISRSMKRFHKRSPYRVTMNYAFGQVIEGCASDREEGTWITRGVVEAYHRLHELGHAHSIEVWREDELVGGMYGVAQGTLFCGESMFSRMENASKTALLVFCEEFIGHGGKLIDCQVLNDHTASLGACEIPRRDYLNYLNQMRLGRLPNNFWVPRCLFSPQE
All HPLC analyses of LysAlaAcm ligations were monitored on an Agilent HPLC using a Waters C18 column (Milford, Mass.).
All HPLC analyses of LysAlaAcm ligations were monitored as described elsewhere herein (Gradient 1).
as §1
To evaluate substrate scope, reactions were analyzed after 4 h, when transfer should be complete for the fully enzymatic reaction with Phe tRNA synthetase (Connor et al., 2008, ChemBioChem 9:366-369).

For assay [2], the target named is T1, E. coli aminoacyl transferase (AaT). The assay is described as follows: A/AMP/ATP/pdCpA inhibition studies of ligation with Phe donor 4a. Further details: made in house; host or cells: E. coli BL21-Gold (DE3), plasmid pEG6, Ni-NTA purified. The settings on record: tested at 1 mM, 2.5 mM and 5 mM with Phe donor 4a. How it is done:
Each ligation reaction was performed as described elsewhere herein.
To better understand limitations on the yield from AaT reactions, the possibilities of inhibition by hydrolyzed substrate or aminoacylated product were assessed. Since the acyl adenosine donor substrate is not regenerated during the reaction (unlike the aaRS/tRNA/AaT reaction), it was hypothesized that the adenosine byproduct might inhibit further acylation by binding to AaT. To investigate this possibility, adenosine was added to the reaction at varying concentrations and monitored the reaction timecourse by fluorescence spectroscopy and by HPLC.

[3] abbreviates: single addition of 1 mM donor, 100 μM LysAlaAcm, 2.26 μM AaT, 37° C., no additive.

Regarding `CC(C)C[C@H](N)C(=O)O[C@@H]1[C@H](O)[C@@H](CO)O[C@H]1n1cnc2c(N)ncnc21` [4b, (S)-(2R,3R,4R,5R)-2-(6-amino-9H-purin-9-yl)-4-hydroxy-5-(hydroxymethyl)tetrahydrofuran-3-yl 2-amino-4-methylpentanoate], the “Ligated Product Yield (%)” value in the assay on V. vulnificus BpT is 5%; in assay [1] (setting [3]), 80.4 ± 0.9%. For the same compound, the “Transfer to LysAlaAcm by AaT (in words)” value in assay [1] is reported as “transferred efficiently”.

Take `Nc1ncnc2c1ncn2[C@@H]1O[C@H](CO)[C@@H](O)[C@H]1OC(=O)[C@@H](N)Cc1ccc2ccccc2c1` [4d, (S)-(2R,3R,4R,5R)-2-(6-amino-9H-purin-9-yl)-4-hydroxy-5-(hydroxymethyl)tetrahydrofuran-3-yl 2-amino-3-(naphthalen-2-yl)propanoate]: the “Ligated Product Yield (%)” value is reported as 95.4 ± 0.4% in assay [1] (setting [3]) and 93.8 ± 0.3% in assay [1] (single addition of donor, additive 100 μM PheLysAlaAcm).

Regarding `CN[C@@H](Cc1ccccc1)C(=O)O[C@@H]1[C@H](O)[C@@H](CO)O[C@H]1n1cnc2c(N)ncnc21` [4e, (S)-(2R,3R,4R,5R)-2-(6-amino-9H-purin-9-yl)-4-hydroxy-5-(hydroxymethyl)tetrahydrofuran-3-yl 2-(methylamino)-3-phenylpropanoate], the “Transfer to LysAlaAcm by AaT (in words)” value in assay [1] is reported as “transferred, albeit with low yield”. In assay [1] (setting [3]), the “Ligated Product Yield (%)” value amounted to 0.6 ± 0.1%.

Turning to `CC(=O)N[C@@H](Cc1ccccc1)C(=O)O[C@@H]1[C@H](O)[C@@H](CO)O[C@H]1n1cnc2c(N)ncnc21` [4f, (S)-(2R,3R,4R,5R)-2-(6-amino-9H-purin-9-yl)-4-hydroxy-5-(hydroxymethyl)tetrahydrofuran-3-yl 2-acetamido-3-phenylpropanoate], the “Transfer to LysAlaAcm by AaT (in words)” value in assay [1] was “poor substrates”. The “Ligated Product Yield (%)” value in assay [1] (setting [3]) worked out at 5f not observed.

As to `[N-]=[N+]=N[C@@H](Cc1ccccc1)C(=O)O[C@@H]1[C@H](O)[C@@H](CO)O[C@H]1n1cnc2c(N)ncnc21` [4g, (S)-(2R,3R,4R,5R)-2-(6-amino-9H-purin-9-yl)-4-hydroxy-5-(hydroxymethyl)tetrahydrofuran-3-yl 2-azido-3-phenylpropanoate], the “Transfer to LysAlaAcm by AaT (in words)” value in assay [1] is recorded as “poor substrates”. In assay [1] (setting [3]), the “Ligated Product Yield (%)” value is recorded as 5g not observed^c.

Consider `COc1ccc2c(C[C@H](N)C(=O)O[C@@H]3[C@H](O)[C@@H](CO)O[C@H]3n3cnc4c(N)ncnc43)cc(=O)oc2c1` [4h, (S)-(2R,3R,4R,5R)-2-(6-amino-9H-purin-9-yl)-4-hydroxy-5-(hydroxymethyl)tetrahydrofuran-3-yl 2-amino-3-(7-methoxy-2-oxo-2H-chromen-4-yl)propanoate], for which, in assay [1], the “Transfer to LysAlaAcm by AaT (in words)” value was “too large”. For the same compound, in assay [1] (setting [3]), the “Ligated Product Yield (%)” value came out at 5h not observed.

As to `Nc1ncnc2c1ncn2[C@@H]1O[C@H](CO)[C@@H](O)[C@H]1OC(=O)[C@@H](N)Cc1ccc(C(=O)c2ccccc2)cc1` [4i, (S)-(2R,3R,4R,5R)-2-(6-amino-9H-purin-9-yl)-4-hydroxy-5-(hydroxymethyl)tetrahydrofuran-3-yl 2-amino-3-(4-benzoylphenyl)propanoate], in assay [1], the “Transfer to LysAlaAcm by AaT (in words)” value is listed as “poor substrate”. Moreover, in assay [1] (setting [3]), the “Ligated Product Yield (%)” value is listed as 9.2 ± 0.3%.

In the case of `CSCC[C@H](N)C(=O)O[C@@H]1[C@H](O)[C@@H](CO)O[C@H]1n1cnc2c(N)ncnc21` [4j, (S)-(2R,3R,4R,5R)-2-(6-amino-9H-purin-9-yl)-4-hydroxy-5-(hydroxymethyl)tetrahydrofuran-3-yl 2-amino-4-(methylthio)butanoate], in assay [1] (setting [3]), the “Ligated Product Yield (%)” value came out at 21.9%.

`CSSC[C@H](N)C(=O)O[C@@H]1[C@H](O)[C@@H](CO)O[C@H]1n1cnc2c(N)ncnc21` [4k, (R)-(2R,3R,4R,5R)-2-(6-amino-9H-purin-9-yl)-4-hydroxy-5-(hydroxymethyl)tetrahydrofuran-3-yl 2-amino-3-(methyldisulfanyl)propanoate]: in assay [1] (setting [3]), the “Ligated Product Yield (%)” value worked out at 20.1%.

Turning to `CC(C)SSC[C@H](N)C(=O)O[C@@H]1[C@H](O)[C@@H](CO)O[C@H]1n1cnc2c(N)ncnc21` [4l, (R)-(2R,3R,4R,5R)-2-(6-amino-9H-purin-9-yl)-4-hydroxy-5-(hydroxymethyl)tetrahydrofuran-3-yl 2-amino-3-(isopropyldisulfanyl)propanoate], the “Ligated Product Yield (%)” value with V. vulnificus BpT was found to be 20%; in assay [1] (setting [3]), 42.3%.

For `CSSCC[C@H](N)C(=O)O[C@@H]1[C@H](O)[C@@H](CO)O[C@H]1n1cnc2c(N)ncnc21` [4n, (S)-(2R,3R,4R,5R)-2-(6-amino-9H-purin-9-yl)-4-hydroxy-5-(hydroxymethyl)tetrahydrofuran-3-yl 2-amino-4-(methyldisulfanyl)butanoate], the “Ligated Product Yield (%)” value in assay [1] (setting [3]) is 27.8%.

With `Nc1ncnc2c1ncn2[C@@H]1O[C@H](COP(=O)(O)OP(=O)(O)OP(=O)(O)O)[C@@H](O)[C@H]1O` [ATP, adenosine triphosphate], the “Inhibition of the reaction, comparison of adenosine compounds” value in assay [2] is “inhibited the reaction”.

PheLysAlaAcm: the “Product inhibition of NapLysAlaAcm (5d) production from Nap-A (4d)” value in assay [1] (100 μM (1 equiv) added, standard 4 h transfer assay) is “did not significantly inhibit”.
